Results on 81 compounds are retold here after the METLIN SMRT retention time set (Domingo-Almenara et al. 2019).

The nature of this series: gradient 5% acetonitrile 3 min, to 50% in 2 min, to 85% in 15 min, held 3 min, 100 µL/min. Particulars: column: Zorbax Extend-C18 2.1 x 50 mm; eluents: water / acetonitrile, 0.1% formic acid. The method, boiled down:
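Mixtures of ~100 pure standards were chromatographed on a Zorbax Extend-C18 column (2.1 × 50 mm, 1.8 μm) at 100 μL/min using water and acetonitrile, each with 0.1% formic acid. Detection used a quadrupole time-of-flight mass spectrometer in positive and negative ionization mode, and data collection spanned 3 months. Retention time was obtained from adduct peaks picked computationally and each checked manually.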
`CCOC(=O)c1c(C)[nH]c(C(=O)N2CCC(CC(=O)NCc3ccc(C)cc3)CC2)c1C` registered an RP-LC retention time of 822 s.

Regarding `COc1ccc(C[C@@H]2NC[C@@H](O)[C@@H]2OC(C)=O)cc1`, the RP-LC retention time is 600 s.

In turn, `CCc1c(C(=O)O)nnn1-c1cccc(Br)c1` gave an RP-LC retention time of 757 s.

Consider `Nc1cc(Nc2ccc(Br)cc2)nc(N)n1`, for which the RP-LC retention time turned out to be 688 s.

For the compound `CC(Oc1ccccc1Cl)C(=O)Nc1ccnn1Cc1cccs1` (stereo unspecified), the RP-LC retention time worked out at 913 s.

In turn, `Cc1cc(C(F)F)n2nc(C(=O)Nc3cc(F)ccc3C)nc2n1` gave an RP-LC retention time of 852 s.

In turn, `Cc1oc2ncn(CC(C)C)c(=O)c2c1C(=O)N1CCN(c2ccccn2)CC1` registered an RP-LC retention time of 568 s.

Compound `Cc1c(C(=O)NCCCN2CCOCC2)oc2ccc3c(c12)C(O)CC(C)(C)O3` (stereo unspecified) returned an RP-LC retention time of 612 s.

`COCc1cc(=O)n(CC(=O)Nc2cc(C)ccc2C)c(N2CCOCC2)n1` had an RP-LC retention time of 844 s.

`CCCN1C(=O)COc2ccc(-c3noc(/C=C/c4ccc(OC)cc4)n3)cc21` had an RP-LC retention time of 1190 s.

`CC(Cc1ccco1)NC(=O)c1ccc2ccnc(N3CCN(c4ccc(F)cc4)CC3)c2c1` (stereo unspecified): the RP-LC retention time is 829 s.

On to `Cc1ccc(NC(=O)C2CCN(S(=O)(=O)c3cc(C(=O)N4CCCCCC4)cs3)CC2)nc1`, for which the RP-LC retention time amounted to 754 s.

As to `O=C(NC1CC1)c1nc(C(=O)N2CCN(c3ccccc3F)CC2)cs1`, the RP-LC retention time worked out at 818 s.

On to `Cc1ccccc1Nc1c(-c2ccccc2O)nc2ccc(Cl)cn12`, for which the RP-LC retention time amounted to 1040 s.

With `Cc1ccc(NC(=O)c2ccc3c(c2)N(CC(=O)N2CCCC2)C(=O)CO3)nc1`, the RP-LC retention time came to 619 s.

Compound `CCCn1ccc2sc(C)c(C(=O)NCC(C)C)c2c1=O` displayed an RP-LC retention time of 800 s.

Compound `O=C(Nc1ccc2c(c1)OCO2)N(Cc1ccccn1)Cc1ccco1` returned an RP-LC retention time of 628 s.

Compound `CCOC(=O)c1[nH]c(C)c(CCC(=O)N2CCC(C(=O)N3CCCCC3)CC2)c1C` displayed an RP-LC retention time of 737 s.

Regarding `Cc1ccnc(N2CCCC(C(=O)NCCCN3CCN(c4cc(Cl)ccc4C)CC3)C2)n1` (stereo unspecified), the RP-LC retention time was 670 s.

In the case of `CSCCC(NC(=O)COc1cccc2ccccc12)C(=O)O` (stereo unspecified), the RP-LC retention time came out at 769 s.

The compound `Cc1cc(NC(=O)c2ccccc2)nc(C)n1` gave an RP-LC retention time of 667 s.

Compound `CC(=O)N1CCc2cc(-c3ccc(C(=O)N4CCN(c5ncccn5)CC4)cc3)ccc21` returned an RP-LC retention time of 771 s.

Consider `C=CCn1c(=O)c2ccccc2n(Cc2nc(-c3ccc(OCC)c(OC)c3)no2)c1=O`, for which the RP-LC retention time was 682 s.

`COCCN1CCCCc2cc(C(=O)NC3CCS(=O)(=O)C3)sc21` (stereo unspecified) came in with an RP-LC retention time of 734 s.

For `O=C(Nc1ccc2c(c1)N(C(=O)c1cccs1)CC2)c1ccccn1`, the RP-LC retention time came to 824 s.

On to `O=C(NCc1ccncc1)c1ccc(-c2ccc(N3CCSCC3)nc2)cc1`, for which the RP-LC retention time amounted to 574 s.

For `Cc1ccc2c(Nc3ccc(CC(=O)O)cc3)c(C(=O)N3CCCC3)cnc2n1`, the RP-LC retention time amounted to 572 s.

In the case of `COc1ccc(CNC(=O)c2ccc3ncnc(N4CCCC4)c3c2)cc1`, the RP-LC retention time amounted to 624 s.

Take `O=C(Cc1ccccc1F)NC1CCN(c2cc(-c3cccs3)[nH]n2)C1` (stereo unspecified): the RP-LC retention time turned out to be 705 s.

Consider `CC1CCN(c2cc(-n3cnc(C(=O)NC4CCCC4)c3)ncn2)CC1`, for which the RP-LC retention time was found to be 968 s.

Turning to `COc1ccc(CNC(=O)c2cn3ccc(C)cc3n2)cc1`, the RP-LC retention time was 545 s.

`CCOC(=O)CCNC(=O)N1CCCC(Cn2cnc3cccnc32)C1` (stereo unspecified) had an RP-LC retention time of 604 s.

`O=c1c2sccc2n(Cc2nc(-c3ccccc3)no2)c(=O)n1CCc1ccccc1` displayed an RP-LC retention time of 1130 s.

With `CC(NC(=O)C1CCN(c2cnc3nccnc3c2)CC1)c1ccccc1` (stereo unspecified), the RP-LC retention time was found to be 705 s.

In turn, `CN1CCn2ccnc2C12CCN(C(=O)Nc1ccc(Cl)cc1C(F)(F)F)CC2` displayed an RP-LC retention time of 650 s.

As to `CC1CN(c2ccccc2)c2nc3c(c(=O)n(CC(=O)O)c(=O)n3C)n2C1` (stereo unspecified), the RP-LC retention time was 709 s.

Take `CN1C(=O)CCC2(CNC(=O)Nc3ccccc3F)CCCC=C12` (stereo unspecified): the RP-LC retention time worked out at 797 s.

`COc1ccc(Cl)cc1NC(=O)NCCN1CCN(S(C)(=O)=O)CC1` came in with an RP-LC retention time of 564 s.

`CCc1ccccc1NC(=O)N1CCCC1c1cc(C)no1` (stereo unspecified) gave an RP-LC retention time of 845 s.

`CN1C(=O)c2cccnc2Sc2cc(NC(=O)C3(c4ccccc4)CC3)ccc21` came in with an RP-LC retention time of 875 s.

In turn, `O=C(NCc1ccco1)c1nnn(-c2ccc(F)cc2)c1-c1ccncc1` gave an RP-LC retention time of 726 s.

As to `CC(C)c1nncn1C1CCN(S(=O)(=O)Cc2ccccc2F)CC1`, the RP-LC retention time was 688 s.

`Cc1ccc(C)c(NC(=O)c2cc(C)n3nccc3n2)c1` displayed an RP-LC retention time of 1030 s.

In the case of `O=C(NCc1ccc(F)cc1)N1CCN(CCn2c(C(F)(F)F)nc3cccnc32)CC1`, the RP-LC retention time is 639 s.

`COCCN1C(=O)CCc2cc(NS(=O)(=O)c3ccccc3Br)ccc21` came in with an RP-LC retention time of 763 s.

In turn, `Cc1ccc(-c2cn3c(CC(=O)Nc4ccc(C#N)cc4)csc3n2)cc1C` gave an RP-LC retention time of 821 s.

The compound `O=C(Oc1cccnc1)c1cn(-c2ccc(Cl)cc2)c(=O)c2ccccc12` registered an RP-LC retention time of 947 s.

On to `Cc1ccc(NC(=O)N2CCC(C(C)C(=O)Nc3ccc(C)c(C)c3)CC2)cc1` (stereo unspecified), for which the RP-LC retention time was found to be 932 s.

In turn, `Cc1cc(C(=O)N2CCCCC2)c2c(=O)n(Cc3ccc(Cl)cc3)c(=O)n(C)c2n1` gave an RP-LC retention time of 1020 s.

Take `CCn1ccc2sc(C)c(C(=O)NCc3cccc(OC)c3OC)c2c1=O`: the RP-LC retention time came to 814 s.

As for `O=C(CN1C(=O)C(C(=O)N2CCCC2)Sc2ccccc21)NC1CCN(Cc2ccccc2)CC1` (stereo unspecified), the RP-LC retention time was determined as 663 s.

Turning to `COc1ccc(CC(=O)N2CCc3c(c(CO)nn3CC3CC3)C2)cc1`, the RP-LC retention time amounted to 715 s.

The compound `COc1cccc(NS(=O)(=O)c2cc(-c3cc(C(F)(F)F)on3)sc2C)c1` displayed an RP-LC retention time of 1110 s.

In turn, `Cc1nc(-c2cccc(-c3noc(-c4ccc5cc[nH]c5c4)n3)c2)cs1` returned an RP-LC retention time of 1230 s.

`CC(C)c1ccc(S(=O)(=O)NCC(c2cccnc2)c2c[nH]c3ccccc23)cc1` (stereo unspecified) gave an RP-LC retention time of 772 s.

`CCCn1cc(C2=CCN(C(=O)Nc3ccc(C)c(C)c3)CC2)c2cccnc21` displayed an RP-LC retention time of 1010 s.

Take `Cc1ccccc1-n1c(=O)c2sccc2n(Cc2nc(-c3ccc(Br)cc3)no2)c1=O`: the RP-LC retention time turned out to be 1120 s.

Consider `O=C(Cn1c(=O)n(Cc2ccc3c(c2)OCO3)c(=O)c2ncccc21)c1ccccc1`, for which the RP-LC retention time is 818 s.

Turning to `Cc1nnc2ccc(NC3CC3)nn12`, the RP-LC retention time amounted to 628 s.

`Cc1cccc(-c2[nH]c(C(C)(C)C)nc2-c2ccc3nccnc3c2)n1` gave an RP-LC retention time of 659 s.

In the case of `CCn1cc(-c2nc(C(=O)Nc3ccc(OC)cc3)cs2)c2cccnc21`, the RP-LC retention time stood at 1000 s.

The compound `O=C(Cc1ccsc1)N1CCCn2nc(-c3ccc(Cl)cc3)cc2C1` came in with an RP-LC retention time of 931 s.

Regarding `COc1ccccc1-n1c(SCC(=O)Nc2nnc(C)s2)nc2c(c1=O)SCC2`, the RP-LC retention time came out at 645 s.

The compound `CCc1ccc(N2C(=O)CN(S(C)(=O)=O)CC2(C)C(=O)NCc2ccc(Cl)cc2)cc1` (stereo unspecified) returned an RP-LC retention time of 874 s.

`CCC(=O)NC(C)c1nc(-c2ccccc2OC)no1` (stereo unspecified) gave an RP-LC retention time of 665 s.

Compound `Cc1nnc(-c2cn(CC(=O)NCCC3=CCCCC3)c3ccccc23)o1` showed an RP-LC retention time of 803 s.

Take `O=C(CCc1nnc2ccc(NCc3ccco3)nn12)N1CCN(c2ccccn2)CC1`: the RP-LC retention time was determined as 569 s.

`O=C(Nc1cccc(Br)c1)c1cc(-c2ccccn2)n[nH]1` displayed an RP-LC retention time of 843 s.

With `O=C(NCc1cc(F)ccc1F)C1CCN(C(=O)c2ncn3c2COC(c2ccccc2)C3)CC1` (stereo unspecified), the RP-LC retention time was found to be 766 s.

On to `CCOC(=O)c1c(C)c(CCC(=O)NCc2cn[nH]c2C)n(C)c1C`, for which the RP-LC retention time is 663 s.

Compound `Brc1cccc(-c2nc3cnccn3c2NC2CCCCC2)c1` returned an RP-LC retention time of 1130 s.

As to `CCc1nc(-c2csc(S(=O)(=O)N3CCC(C(=O)NC4CCCCCC4)CC3)c2)no1`, the RP-LC retention time came to 997 s.

`O=C(Nc1cccc(OCc2nnc(-c3ccc(Cl)cc3)o2)c1)C1CCC1` returned an RP-LC retention time of 978 s.

As to `CSc1ccc(-c2nc3ccc(Cl)cn3c2Nc2ccc3c(c2)OCCO3)cc1`, the RP-LC retention time is 819 s.

In turn, `C/C(=N\NC(N)=O)c1ccc(Cl)c(-n2cccc2)c1` displayed an RP-LC retention time of 855 s.

The compound `Cn1nnc2cc(-c3noc(C4CC(=O)N(c5cccc(Cl)c5)C4)n3)ccc21` (stereo unspecified) displayed an RP-LC retention time of 864 s.

Regarding `CCc1ccc(CN2C(=O)C3(CCOCC3)CC2c2nnnn2C(C)(C)C)cc1` (stereo unspecified), the RP-LC retention time was found to be 862 s.

Regarding `Cc1ccc(-n2nc3c(=O)n(CC(=O)NC4CCCC4)nc(C)c3c2C)cc1`, the RP-LC retention time came to 795 s.

`Cc1oc(C2CCN(C(=O)Cc3c(F)cccc3Cl)CC2)nc1C(=O)N1CCCCC1` displayed an RP-LC retention time of 886 s.

In turn, `Cc1cc(OCC(=O)NCc2ccc3c(c2)OCO3)nc(N2CCCCCC2)n1` returned an RP-LC retention time of 594 s.

`Cc1nnc2ccc(-c3noc(-c4ccc(Br)cc4)n3)cn12` yielded an RP-LC retention time of 1030 s.
